{"source": "PubChem BioAssay AID1963827", "about": "(Molecular Pharmacology Branch, DTP, NCI, 2024)", "test_system": "994946-033-R-J1-PDC complex spheroid viability", "assay": "Anticancer human tumor 994946-033-R-J1-PDC patient-derived melanoma cell line growth inhibition [POLQ]", "conditions": "for pIC50: curve of first compound; for viability, T/C: stronger effect = lower value", "summary_of_the_method": "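Growth inhibition in 3D: complex spheroids (tumor PDC, HUVEC, MSC) treated with POLQ inhibitor combinations; where Cmax unknown, highest tested concentration 10 microM, except SN-38 at 1 microM.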", "note": "pIC50: −log10 of the molar value.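 Note: spheroids exposed to drugs for 7 days.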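 Throughout, for viability, T/C: 100% = DMSO vehicle treated spheroids.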", "data": [{"smiles": "COc1cccc2c1C(=O)c1c(O)c3c(c(O)c1C2=O)CC(O)(C(=O)CO)CC3OC1CC(N)C(O)C(C)O1", "note": "(configuration not stated) + COC1C(OC(N)=O)C(O)C(Oc2ccc3c(O)c(NC(=O)c4ccc(O)c(CC=C(C)C)c4)c(=O)oc3c2C)OC1(C)C", "values": [{"measurement": "pIC50", "setting": "second compound 0.0316 µM", "result": "> 7.50"}, {"measurement": "pIC50", "setting": "second compound 0.1 µM", "result": "> 7.50"}, {"measurement": "pIC50", "setting": "second compound 0.316 µM", "result": "> 7.50"}, {"measurement": "pIC50", "setting": "second compound 1 µM", "result": "> 7.50"}, {"measurement": "pIC50", "setting": "second compound 3.16 µM", "result": "> 7.50"}, {"measurement": "pIC50", "setting": "second compound 10 µM", "result": "> 7.50"}, {"measurement": "viability, T/C", "setting": "second compound 0.0316 µM, first compound 0.0316 µM", "result": 30, "unit": "%"}, {"measurement": "viability, T/C", "setting": "second compound 0.0316 µM, first compound 0.1 µM", "result": 9.63, "unit": "%"}, {"measurement": "viability, T/C", "setting": "second compound 0.0316 µM, first compound 0.316 µM", "result": 3, "unit": "%"}, {"measurement": "viability, T/C", "setting": "second compound 0.0316 µM, first compound 1 µM", "result": 2.19, "unit": "%"}, {"measurement": "viability, T/C", "setting": "second compound 0.0316 µM, first compound 3.16 µM", "result": 0.88, "unit": "%"}, {"measurement": "viability, T/C", "setting": "second compound 0.0316 µM, first compound 10 µM", "result": 1.18, "unit": "%"}, {"measurement": "viability, T/C", "setting": "second compound 0.1 µM, first compound 0.0316 µM", "result": 38.2, "unit": "%"}, {"measurement": "viability, T/C", "setting": "second compound 0.1 µM, first compound 0.1 µM", "result": 11.2, "unit": "%"}, {"measurement": "viability, T/C", "setting": "second compound 0.1 µM, first compound 0.316 µM", "result": 1.88, "unit": "%"}, {"measurement": "viability, T/C", "setting": "second compound 0.1 µM, first compound 1 µM", "result": 1.88, "unit": "%"}, {"measurement": "viability, T/C", "setting": "second compound 0.1 µM, first compound 3.16 µM", "result": 1.36, "unit": "%"}, {"measurement": "viability, T/C", "setting": "second compound 0.1 µM, first compound 10 µM", "result": 0.62, "unit": "%"}, {"measurement": "viability, T/C", "setting": "second compound 0.316 µM, first compound 0.0316 µM", "result": 29.7, "unit": "%"}, {"measurement": "viability, T/C", "setting": "second compound 0.316 µM, first compound 0.1 µM", "result": 8.65, "unit": "%"}, {"measurement": "viability, T/C", "setting": "second compound 0.316 µM, first compound 0.316 µM", "result": 5.33, "unit": "%"}, {"measurement": "viability, T/C", "setting": "second compound 0.316 µM, first compound 1 µM", "result": 1.37, "unit": "%"}, {"measurement": "viability, T/C", "setting": "second compound 0.316 µM, first compound 3.16 µM", "result": 0.61, "unit": "%"}, {"measurement": "viability, T/C", "setting": "second compound 0.316 µM, first compound 10 µM", "result": 1.78, "unit": "%"}, {"measurement": "viability, T/C", "setting": "second compound 1 µM, first compound 0.0316 µM", "result": 38.5, "unit": "%"}, {"measurement": "viability, T/C", "setting": "second compound 1 µM, first compound 0.1 µM", "result": 21.4, "unit": "%"}, {"measurement": "viability, T/C", "setting": "second compound 1 µM, first compound 0.316 µM", "result": 2.96, "unit": "%"}, {"measurement": "viability, T/C", "setting": "second compound 1 µM, first compound 1 µM", "result": 0.39, "unit": "%"}, {"measurement": "viability, T/C", "setting": "second compound 1 µM, first compound 3.16 µM", "result": 0.88, "unit": "%"}, {"measurement": "viability, T/C", "setting": "second compound 1 µM, first compound 10 µM", "result": 0.7, "unit": "%"}, {"measurement": "viability, T/C", "setting": "second compound 3.16 µM, first compound 0.0316 µM", "result": 29.7, "unit": "%"}, {"measurement": "viability, T/C", "setting": "second compound 3.16 µM, first compound 0.1 µM", "result": 7.94, "unit": "%"}, {"measurement": "viability, T/C", "setting": "second compound 3.16 µM, first compound 0.316 µM", "result": 3.1, "unit": "%"}, {"measurement": "viability, T/C", "setting": "second compound 3.16 µM, first compound 1 µM", "result": 0.41, "unit": "%"}, {"measurement": "viability, T/C", "setting": "second compound 3.16 µM, first compound 3.16 µM", "result": 0.77, "unit": "%"}, {"measurement": "viability, T/C", "setting": "second compound 3.16 µM, first compound 10 µM", "result": 0.92, "unit": "%"}, {"measurement": "viability, T/C", "setting": "second compound 10 µM, first compound 0.0316 µM", "result": 29.2, "unit": "%"}, {"measurement": "viability, T/C", "setting": "second compound 10 µM, first compound 0.1 µM", "result": 9.79, "unit": "%"}, {"measurement": "viability, T/C", "setting": "second compound 10 µM, first compound 0.316 µM", "result": 2.2, "unit": "%"}, {"measurement": "viability, T/C", "setting": "second compound 10 µM, first compound 1 µM", "result": 0.59, "unit": "%"}, {"measurement": "viability, T/C", "setting": "second compound 10 µM, first compound 3.16 µM", "result": 1.28, "unit": "%"}, {"measurement": "viability, T/C", "setting": "second compound 10 µM, first compound 10 µM", "result": 0.88, "unit": "%"}]}]}
